Assay: logP by HPLC on reversed-phase column (EEC Directive 79/831 Annex V.A8)
Details: HPLC on reversed-phase column (C 18), 40° C., 0.1% aqueous formic acid and acetonitrile, linear gradient 10% to 90% acetonitrile

Compound	logP
Cn1nc(C(F)F)c(C(=O)N(C2CC2)C2CCc3cccc(Cl)c32)c1F (stereo not drawn) [Example 109]	3.42
Cn1nc(C(F)F)c(C(=O)N(Cc2cccc(C(F)(F)F)c2Cl)C2CC2)c1F [Example 104]	3.64
CC(c1cc(Br)cc(Br)c1)N(C(=O)c1c(C(F)F)nn(C)c1F)C1CC1 (racemic) [Example 106]	4.26
Cn1nc(C(F)F)c(C(=O)N(Cc2c(Cl)cccc2[Si](C)(C)C)C2CC2)c1Cl [Example 151]	4.82
Cn1nc(C(F)F)c(C(=O)N(Cc2c(Cl)cc(Cl)cc2Cl)C2CC2)c1F [Example 107]	3.99
CCCCC1Cc2ccccc2C1N(C(=O)c1c(C(F)F)nn(C)c1F)C1CC1 (stereo not drawn) [Example 100]	4.85
Cn1nc(C(F)F)c(C(=O)N(Cc2ccccc2C2CC2C2CC2)C2CC2)c1F (stereo not drawn) [Example 155]	4.25
CC(C)Cc1cccc(Cl)c1CN(C(=O)c1c(C(F)F)nn(C)c1Cl)C1CC1 [Example 150]	4.74
Cn1nc(C(F)F)c(C(=O)N(Cc2ccccc2Oc2ccc(F)cc2)C2CC2)c1F [Example 110]	3.85
CCc1ccccc1CN(C(=S)c1c(C(F)F)nn(C)c1F)C1CC1 [Example 133]	4.06
Cc1cccc(C)c1CN(C(=O)c1c(C(F)F)nn(C)c1F)C1CC1 [Example 108]	3.31

Same assay, conditions: HPLC, reversed-phase column (C 18), 40° C., 0.1% aqueous formic acid and acetonitrile, linear gradient 10% to 90% acetonitrile

Compound	logP
CC(C)c1ccccc1CN(C(=O)c1c(C(F)F)nn(C)c1Cl)C1CC1 [Example 34]	3.81
Cn1nc(C(F)F)c(C(=O)N(Cc2ccccc2[Si](C)(C)C)C2CC2)c1Cl [Example 37]	4.49
CC(c1ccccc1Br)N(C(=O)c1c(C(F)F)nn(C)c1F)C1CC1 (stereo not drawn) [Example 98]	3.31
Cn1nc(C(F)F)c(C(=O)N(C2CC2)C2CCCc3cccc(Br)c32)c1F (stereo not drawn) [Example 97]	3.78
Cn1nc(C(F)F)c(C(=O)N(Cc2ccc(Cl)cc2Cl)C2CC2)c1Cl [Example 59]	3.89
CCc1cccc(CC)c1CN(C(=O)c1c(C(F)F)nn(C)c1F)C1CC1 [Example 88]	4.01
CCC(c1ccc(Cl)cc1Cl)N(C(=O)c1c(C(F)F)nn(C)c1F)C1CC1 (stereo not drawn) [Example 69]	4.2
Cn1nc(C(F)F)c(C(=O)N(C2CC2)C2CC(C)(C)c3ccccc32)c1F (stereo not drawn) [Example 85]	3.87
Cn1nc(C(F)F)c(C(=O)N(Cc2cccc(-c3ccccc3)c2)C2CC2)c1Cl [Example 67]	3.94
Cc1cc(Cl)c(CN(C(=O)c2c(C(F)F)nn(C)c2F)C2CC2)cc1C [Example 79]	3.85
CC(c1ccccc1C(F)(F)F)N(C(=O)c1c(C(F)F)nn(C)c1Cl)C1CC1 (stereo not drawn) [Example 55]	3.64
CC(c1ccccc1C(F)(F)F)N(C(=O)c1c(C(F)F)nn(C)c1F)C1CC1 (stereo not drawn) [Example 66]	3.42
CC(c1cc(C(F)(F)F)ccc1Cl)N(C(=O)c1c(C(F)F)nn(C)c1F)C1CC1 (stereo not drawn) [Example 96]	3.89
Cn1nc(C(F)F)c(C(=S)N(Cc2ncc(C(F)(F)F)cc2Cl)C2CC2)c1F [Example 7]	4.11
Cn1nc(C(F)F)c(C(=O)N(Cc2cc(Br)ccc2I)C2CC2)c1F [Example 21]	3.94
Cc1cc(C)c2c(c1)C(N(C(=O)c1c(C(F)F)nn(C)c1F)C1CC1)CCC2 (stereo not drawn) [Example 74]	4.25
Cn1nc(C(F)F)c(C(=O)N(Cc2cc(Br)c3c(c2Br)OCO3)C2CC2)c1F [Example 87]	3.44
CCC(c1cc(Cl)cc(Cl)c1)N(C(=O)c1c(C(F)F)nn(C)c1F)C1CC1 (stereo not drawn) [Example 71]	4.41
Cn1nc(C(F)F)c(C(=O)N(Cc2ccccc2C(F)(F)F)C2CC2)c1Cl [Example 56]	3.58
Cn1nc(C(F)F)c(C(=O)N(Cc2ccccc2I)C2CC2)c1Cl [Example 35]	3.6
CC(c1ncc(Cl)cc1Cl)N(C(=O)c1c(C(F)F)nn(C)c1Cl)C1CC1 (stereo not drawn) [Example 58]	3.69
Cn1nc(C(F)F)c(C(=O)N(Cc2ccccc2C(C)(C)C)C2CC2)c1F [Example 76]	4.06
